Key:
[1] = Metabolic stability in human liver microsomes assessed as parent compound remaining at 0.5 uM preincubated for 6 mins followed by NADPH addition measured after 10 mins by LC-MS/MS analysis; assay type: ADME, microsome; conditions: read-out: Stability
[2] = Metabolic stability in rat liver microsomes assessed as parent compound remaining at 0.5 uM preincubated for 6 mins followed by NADPH addition measured after 10 mins by LC-MS/MS analysis; assay type: ADME, microsome; conditions: read-out: Stability
[3] = Metabolic stability in mouse liver microsomes assessed as parent compound remaining at 0.5 uM preincubated for 6 mins followed by NADPH addition measured after 10 mins by LC-MS/MS analysis; assay type: ADME, microsome; conditions: read-out: Stability
[4] = Half life in human liver microsomes aat 0.5 uM preincubated for 6 mins followed by NADPH addition measured after 10 mins by LC-MS/MS analysis; assay type: ADME, microsome
[5] = Half life in rat liver microsomes aat 0.5 uM preincubated for 6 mins followed by NADPH addition measured after 10 mins by LC-MS/MS analysis; assay type: ADME, microsome
[6] = Half life in mouse liver microsomes aat 0.5 uM preincubated for 6 mins followed by NADPH addition measured after 10 mins by LC-MS/MS analysis; assay type: ADME, microsome
[7] = Cmax in Balb/c mouse at 10 mg/kg, po; assay type: ADME, organism-based; parameters: dose 10 mg/kg, route oral; conditions: in vivo
[8] = AUC (0 to 24 hrs) in Balb/c mouse at 10 mg/kg, po; assay type: ADME, organism-based; parameters: time < 24 hr, dose 10 mg/kg, route oral; conditions: in vivo
Oryctolagus cuniculus [9] = experiment: Effect on QTc time interval in New Zealand White rabbit administered as 10 mins iv infusion measured for 2 mins by ECG analysis; assay type: ADME, organism-based; conditions: in vivo
[10] = AUC (0 to 24 hrs) in Balb/c mouse at 30 mg/kg, po; assay type: ADME, organism-based; parameters: dose 30 mg/kg, time < 24 hr, route oral; conditions: in vivo
[11] = AUC (0 to 24 hrs) in Balb/c mouse at 100 mg/kg, po; assay type: ADME, organism-based; parameters: dose 100 mg/kg, time < 24 hr, route oral; conditions: in vivo
[12] = Cmax in mouse at 6 mg/kg, po; assay type: ADME, organism-based; parameters: dose 6 mg/kg, route oral; conditions: in vivo
[13] = Cmax in rat at 5 mg/kg, po; assay type: ADME, organism-based; parameters: dose 5 mg/kg, route oral; conditions: in vivo
[14] = Cmax in dog at 2 mg/kg, po; assay type: ADME, organism-based, Canis lupus familiaris; parameters: dose 2 mg/kg, route oral; conditions: in vivo
[15] = AUC in mouse at 6 mg/kg, po; assay type: ADME, organism-based; conditions: in vivo
[16] = Clearance in monkey at 1 mg/kg, iv; assay type: ADME, organism-based, Macaca mulatta; conditions: rhesus monkey, in vivo
[17] = AUC in rat at 5 mg/kg, po; assay type: ADME, organism-based; conditions: in vivo
[18] = Clearance in mouse at 3 mg/kg, iv; assay type: ADME, organism-based; conditions: in vivo
[19] = Clearance in rat at 2 mg/kg, iv; assay type: ADME, organism-based; conditions: in vivo
[20] = Volume of distribution at steady state in mouse at 3 mg/kg, iv; assay type: ADME, organism-based; conditions: in vivo, read-out: Vdss
[21] = Volume of distribution at steady state in rat at 2 mg/kg, iv; assay type: ADME, organism-based; conditions: in vivo, read-out: Vdss
[22] = Volume of distribution at steady state in dog at 1 mg/kg, iv; assay type: ADME, organism-based, Canis lupus familiaris; conditions: in vivo, read-out: Vdss
[23] = Volume of distribution at steady state in monkey at 1 mg/kg, iv; assay type: ADME, organism-based, Macaca mulatta; conditions: rhesus monkey, in vivo, read-out: Vdss
[24] = Half life in mouse at 3 mg/kg, iv; assay type: ADME, organism-based; conditions: in vivo
[25] = Half life in rat at 2 mg/kg, iv; assay type: ADME, organism-based; conditions: in vivo
[26] = Half life in dog at 1 mg/kg, iv; assay type: ADME, organism-based, Canis lupus familiaris; conditions: in vivo
[27] = Half life in monkey at 1 mg/kg, iv; assay type: ADME, organism-based, Macaca mulatta; conditions: rhesus monkey, in vivo
[28] = Oral bioavailability in mouse at 6 mg/kg; assay type: ADME, organism-based; conditions: in vivo
[29] = Oral bioavailability in rat at 5 mg/kg; assay type: ADME, organism-based; conditions: in vivo
Canis familiaris = experiment: Oral bioavailability in dog at 2 mg/kg; assay type: ADME, organism-based, Canis lupus familiaris; conditions: in vivo
Plasma [30] = experiment: Drug uptake in New Zealand White rabbit plasma at 3 mg/kg, iv administered as 10 mins infusion measured up to 30 mins post dose; assay type: ADME, organism-based, Oryctolagus cuniculus; conditions: in vivo
Plasma [31] = experiment: Drug uptake in New Zealand White rabbit plasma at 10 mg/kg, iv administered as 10 mins infusion measured up to 30 mins post dose; assay type: ADME, organism-based, Oryctolagus cuniculus; conditions: in vivo
Plasma [32] = experiment: Drug uptake in New Zealand White rabbit plasma at 20 mg/kg, iv administered as 10 mins infusion measured up to 30 mins post dose; assay type: ADME, organism-based, Oryctolagus cuniculus; conditions: in vivo
Plasma [33] = experiment: Free plasma concentration in New Zealand White rabbit at 3 mg/kg, iv administered as 10 mins infusion measured up to 30 mins post dose; assay type: ADME, organism-based, Oryctolagus cuniculus; conditions: in vivo
Plasma [34] = experiment: Free plasma concentration in New Zealand White rabbit at 10 mg/kg, iv administered as 10 mins infusion measured up to 30 mins post dose; assay type: ADME, organism-based, Oryctolagus cuniculus; conditions: in vivo
Plasma [35] = experiment: Free plasma concentration in New Zealand White rabbit at 20 mg/kg, iv administered as 10 mins infusion measured up to 30 mins post dose; assay type: ADME, organism-based, Oryctolagus cuniculus; conditions: in vivo
Oryctolagus cuniculus [36] = experiment: Effect on QTc time interval in New Zealand White rabbit at 3 mg/kg, iv administered as 10 mins infusion measured for 2 mins by ECG analysis; assay type: ADME, organism-based; conditions: in vivo
Oryctolagus cuniculus [37] = experiment: Effect on QTc time interval in New Zealand White rabbit at 10 mg/kg, iv administered as 10 mins infusion measured for 2 mins by ECG analysis; assay type: ADME, organism-based; conditions: in vivo
Oryctolagus cuniculus [38] = experiment: Effect on QTc time interval in New Zealand White rabbit at 20 mg/kg, iv administered as 10 mins infusion measured for 2 mins by ECG analysis; assay type: ADME, organism-based; conditions: in vivo

CC(=O)N1CCN(c2cc(-c3cc(Cl)c4c(N)ncnn34)ccc2C)C(=O)C1(C)C
remaining at 10 min, 0.5 µM [1]: 82%
remaining at 10 min, 0.5 µM [2]: 60%
remaining at 10 min, 0.5 µM [3]: 66%

CC(=O)N1CCN(c2cccc(-c3cc(-c4ccnn4CC(F)(F)F)c4c(N)ncnn34)c2)C(=O)C1(C)C
remaining at 10 min, 0.5 µM [1]: 80%
remaining at 10 min, 0.5 µM [2]: 70%
remaining at 10 min, 0.5 µM [3]: 62%
half-life at 0.5 µM [4]: 57 min
half-life at 0.5 µM [5]: 31 min
half-life at 0.5 µM [6]: 26 min
Cmax [7]: 1.8 µM
AUC(0-t) at 24 h [8]: 4.1 µM·h
Time (Oryctolagus cuniculus [9]): > 10 ms

CC(=O)N1CCN(c2cccc(-c3cc(Cl)c4c(N)ncnn34)c2)C(=O)C1(C)C
remaining at 10 min, 0.5 µM [1]: 100%
remaining at 10 min, 0.5 µM [2]: 57%
remaining at 10 min, 0.5 µM [3]: 17%
half-life at 0.5 µM [4]: > 120 min
half-life at 0.5 µM [5]: 16 min
half-life at 0.5 µM [6]: 4 min
AUC(0-t) at 24 h [10]: 2.9 µM·h
AUC(0-t) at 24 h [11]: 17 µM·h

CC(=O)N1CCN(c2cc(C)cc(-c3cc(Cl)c4c(N)ncnn34)c2)C(=O)C1(C)C
remaining at 10 min, 0.5 µM [1]: 92%
remaining at 10 min, 0.5 µM [2]: 100%
remaining at 10 min, 0.5 µM [3]: 45%

COc1ccc(-c2cc(C(F)(F)F)c3c(N)ncnn23)cc1N1CCN(C(C)=O)C(C)(C)C1=O
remaining at 10 min, 0.5 µM [1]: 95%
remaining at 10 min, 0.5 µM [2]: 100%
remaining at 10 min, 0.5 µM [3]: 100%

CC(=O)N1CCN(c2cc(-c3cc(C(F)(F)F)c4c(N)ncnn34)ccc2C(F)(F)F)C(=O)C1(C)C
remaining at 10 min, 0.5 µM [1]: 70%
remaining at 10 min, 0.5 µM [2]: 77%
remaining at 10 min, 0.5 µM [3]: 99%

CC(=O)N1CCN(c2cccc(-c3cc(C(F)(F)F)c4c(N)ncnn34)c2)C(=O)C1(C)C
remaining at 10 min, 0.5 µM [1]: 83%
remaining at 10 min, 0.5 µM [2]: 52%
remaining at 10 min, 0.5 µM [3]: 30%
half-life at 0.5 µM [4]: 41 min
half-life at 0.5 µM [5]: 14 min
half-life at 0.5 µM [6]: 9 min

CC(=O)N1CCN(c2cc(-c3cc(Cl)c4c(N)ncnn34)ccc2C(C)O)C(=O)C1(C)C (racemic)
remaining at 10 min, 0.5 µM [1]: 100%
remaining at 10 min, 0.5 µM [2]: 100%
remaining at 10 min, 0.5 µM [3]: 100%

CC(=O)N1CCN(c2cc(-c3cc(C(F)(F)F)c4c(N)ncnn34)ccc2S(C)(=O)=O)C(=O)C1(C)C
remaining at 10 min, 0.5 µM [1]: 96%
remaining at 10 min, 0.5 µM [2]: 96%
remaining at 10 min, 0.5 µM [3]: 97%

CC(=O)N1CCN(c2cccc(-c3cc(-c4ccnn4C4CCOCC4)c4c(N)ncnn34)c2)C(=O)C1(C)C
remaining at 10 min, 0.5 µM [1]: 77%
remaining at 10 min, 0.5 µM [2]: 81%
remaining at 10 min, 0.5 µM [3]: 53%

CC(=O)N1CCN(c2cc(-c3cc(C(F)(F)F)c4c(N)ncnn34)ccc2C#N)C(=O)C1(C)C
Cmax [12]: 5.9 µM
Cmax [13]: 14 µM
remaining at 10 min, 0.5 µM [1]: 94%
remaining at 10 min, 0.5 µM [2]: 91%
remaining at 10 min, 0.5 µM [3]: 81%
half-life at 0.5 µM [4]: > 120 min
half-life at 0.5 µM [5]: 67 min
half-life at 0.5 µM [6]: 72 min
Cmax [7]: 8.2 µM
AUC(0-t) at 24 h [8]: 17 µM·h
Cmax [14]: 6.3 µM
AUC [15]: 12 µM·h
clearance [16]: 4.6 mL/min/kg
AUC [17]: 54 µM·h
clearance [18]: 17 mL/min/kg
clearance [19]: 2.3 mL/min/kg
Vd [20]: 2.7 L/kg
Vd [21]: 0.5 L/kg
Vd [22]: 0.61 L/kg
Vd [23]: 3.6 L/kg
half-life [24]: 294 min
half-life [25]: 210 min
half-life [26]: 1740 min
half-life [27]: 600 min
bioavailability [28]: 94%
bioavailability [29]: 71%
F (Canis familiaris): 75%
concentration (Plasma [30]): 10 µM
concentration (Plasma [31]): 27 µM
concentration (Plasma [32]): 54 µM
Cp(f) (Plasma [33]): 0.9 µM
Cp(f) (Plasma [34]): 2.4 µM
Cp(f) (Plasma [35]): 4.8 µM
Time (Oryctolagus cuniculus [36]): 2.2 ms
Time (Oryctolagus cuniculus [37]): 13 ms
Time (Oryctolagus cuniculus [38]): 25 ms
